Read-outs that look alike come from different tables or passages of the source.

For data set [1], the target named is T1, Human recombinant sEH (Homo sapiens, UniProt P34913).
T1 construct: made in house
T1 sequence (P34913 1-555): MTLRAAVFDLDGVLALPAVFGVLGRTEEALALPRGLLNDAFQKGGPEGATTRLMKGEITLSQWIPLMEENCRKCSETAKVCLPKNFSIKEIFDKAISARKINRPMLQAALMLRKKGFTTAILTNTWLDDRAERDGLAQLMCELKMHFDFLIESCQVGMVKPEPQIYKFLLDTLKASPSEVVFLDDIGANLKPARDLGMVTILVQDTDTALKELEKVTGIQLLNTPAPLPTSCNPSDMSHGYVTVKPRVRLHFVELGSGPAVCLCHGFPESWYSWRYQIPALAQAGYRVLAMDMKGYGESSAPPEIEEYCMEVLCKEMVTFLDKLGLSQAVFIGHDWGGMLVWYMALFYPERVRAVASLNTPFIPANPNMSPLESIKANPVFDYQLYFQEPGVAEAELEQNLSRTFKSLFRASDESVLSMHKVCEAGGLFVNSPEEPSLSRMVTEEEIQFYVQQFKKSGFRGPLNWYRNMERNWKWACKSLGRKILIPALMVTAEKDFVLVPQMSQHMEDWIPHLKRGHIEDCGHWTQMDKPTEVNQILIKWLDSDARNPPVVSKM
The experiment in a line: sEH activity assay (PHOME fluorescence, cell-free). It is filed as biochemical. The procedure: Human recombinant sEH was expressed and purified as published.[23] Isolated sEH was diluted in 25 mM Tris buffer (pH 7) containing 0.1 mg/mL BSA to a final protein concentration of 0.5 µg/mL. Preincubation with test compounds or 0.1% vehicle (DMSO) at room temperature for 10 min was followed by stimulation with 50 µM PHOME at RT for 60 min. Reactions were stopped with 200 mM ZnSO4 and fluorescence was subsequently detected at λem 465 nm and λex 330 nm. If required, possible fluorescence of the compounds was subtracted from the read-out.

Data set [2] concerns the target T2, FLAP (5-LOX product formation) (Homo sapiens, UniProt P20292).
T2 construct: Human neutrophils were isolated from buffy coats of healthy adult fasted donors; endogenous in cells; host or cells: primary human neutrophils from buffy coats
T2 sequence (P20292 1-161): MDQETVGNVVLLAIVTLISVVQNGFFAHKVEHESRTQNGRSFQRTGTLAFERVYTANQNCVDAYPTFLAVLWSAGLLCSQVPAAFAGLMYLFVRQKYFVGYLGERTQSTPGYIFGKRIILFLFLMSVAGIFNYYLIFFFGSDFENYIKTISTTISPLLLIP
Put plainly: FLAP-dependent 5-LOX product formation in human neutrophils. It is filed as cell-based. The settings on record: for IC50: human neutrophils, A23187 stimulated, read-out: FLAP (5-LOX product formation) IC50 ± SEM. The procedure: Human neutrophils were isolated from buffy coats of healthy adult fasted donors as described recently.[32] […] 200 ng of internal PGB1 standard was added to the acidified samples and solid-phase-extraction using C18 RP-columns (100 mg, UCT, Bristol, PA, USA) was performed. Samples were eluted with methanol and 5-LOX products including 5-HpETE, and the corresponding alcohol 5-HETE, LTB4, and all-trans-isomers of LTB4 were analysed by RP-HPLC with a C-18 Radial-PAK column (Waters, Eschborn, Germany) as described.[33]

Details of data set [3]: method as in PMID 28218273, PMID 26882208, PMID 28839250. As to conditions: cited from earlier work.
For data set [4] the following is noted: lead compound, stated without reference; cited from earlier work.
Data set [5] deals with LT biosynthesis. The settings on record: cited from earlier work.
Data set [6] addresses T2, FLAP (5-LOX product formation). As to conditions: neutrophils; cited from earlier work.
Where [7] appears, read: read-out: sEH IC50 ± SEM, human recombinant sEH, cell-free.

`Cc1cc(OCc2nc3ccccc3n2C(=O)OC(C)(C)C)ccc1NC(=O)Nc1ccc(Cl)c(Cl)c1` [Compound 5a, tert-butyl-2-((4-(3-(3,4-dichlorophenyl)ureido)-3-methylphenoxy)methyl)-1H-benzo[d]imidazole-1-carboxylate]: the melting point – broadly, the temperature of the solid-liquid transition – lay in the range of 261 to 263 °C. Besides, the IC50 – broadly, the concentration at which inhibition is half-maximal – in data set [1] is 0.7 ± 0.1 nM. In addition, the IC50 in data set [2] is 3700 ± 900 nM.
The corresponding values for `CC(C)(C)OC(=O)n1c(COc2ccc(NC(=O)Nc3ccc(Cl)c(Cl)c3)cc2)nc2ccccc21` [Compound 5b, tert-butyl 2-((4-(3-(3,4-dichlorophenyl)ureido)phenoxy)methyl)-1H-benzo[d]imidazole-1-carboxylate] are 262 to 264 °C, 0.63 ± 0.1 nM and above 10000 nM.
For `Cc1cc(NC(=O)Nc2ccc(Cl)c(Cl)c2)ccc1OCc1nc2ccccc2n1C(=O)OC(C)(C)C` [Compound 5c, tert-butyl-2-((4-(3-(3,4-dichlorophenyl)ureido)-2-methylphenoxy)methyl)-1H-benzo[d]imidazole-1-carboxylate], the melting point was in the range of 145 to 146 °C. For the same molecule, the IC50 in data set [1] came out at 0.7 ± 0.1 nM. In addition, in data set [2], the IC50 was above 10000 nM.
Consider `Cc1cc(OCc2nc3ccccc3n2C(=O)OC(C)(C)C)ccc1NC(=S)Nc1ccc(Cl)c(Cl)c1` [Compound 5d, tert-butyl 2-((4-(3-(3,4-dichlorophenyl)thioureido)-3-methylphenoxy)methyl)-1H-benzo[d]imidazole-1-carboxylate], for which the melting point stood at 172 °C. Further, the “sEH activity (in words)” value in data set [1] was “inactive”. In data set [1] (setting [7]), the IC50 is above 10000 nM. Besides, in data set [2], the “FLAP activity (in words)” value is on record as “Inactive” and the IC50 is above 10000 nM.
Regarding `CC(C)(C)OC(=O)n1c(COc2ccc(NC(=S)Nc3ccc(Cl)c(Cl)c3)cc2)nc2ccccc21` [Compound 5e, tert-butyl 2-((4-(3-(3,4-dichlorophenyl)thioureido)phenoxy)methyl)-1H-benzo[d]imidazole-1-carboxylate], the melting point was in the range of 165 to 167 °C. Also, the IC50 in data set [1] is 19.1 ± 7.2 nM. In data set [2], the IC50 was above 10000 nM.
For the molecule `Cc1cc(NC(=S)Nc2ccc(Cl)c(Cl)c2)ccc1OCc1nc2ccccc2n1C(=O)OC(C)(C)C` [Compound 5f, tert-butyl 2-((4–(3-(3,4-dichlorophenyl)thioureido)-2-methylphenoxy)methyl)-1H-benzo[d]imidazole-1-carboxylate], the melting point lay in the range of 169 to 172 °C. Further, in data set [1], the IC50 came to 17.5 ± 12.7 nM. The IC50 in data set [2] is above 10000 nM.
`Cc1cc(OCc2nc3ccccc3[nH]2)ccc1NC(=O)Nc1ccc(Cl)c(Cl)c1` [Compound 6a, 1-(4-((1H-benzo[d]imidazol-2-yl)methoxy)-2-methylphenyl)-3-(3,4-dichlorophenyl)urea] showed a melting point of 245 to 246 °C. Moreover, in data set [1] (setting [7]), the IC50 was 56.9 ± 19.4 nM. Further, the IC50 in data set [2] turned out to be 700 ± 100 nM.
As to `O=C(Nc1ccc(OCc2nc3ccccc3[nH]2)cc1)Nc1ccc(Cl)c(Cl)c1` [Compound 6b, 1-(4-((1H-benzo[d]imidazol-2-yl)methoxy)phenyl)-3-(3,4-dichlorophenyl)urea], the melting point is 272 °C. Also, in data set [1], the IC50 was 10.5 ± 1.9 nM. Further, in data set [2], the IC50 is 600 ± 100 nM.
The matching figures for `Cc1cc(NC(=O)Nc2ccc(Cl)c(Cl)c2)ccc1OCc1nc2ccccc2[nH]1` [Compound 6c, 1-(4-((1H-benzo[d]imidazol-2-yl)methoxy)-3-methylphenyl)-3-(3,4-dichlorophenyl)urea]: 228 to 230 °C, 4.9 ± 1 nM and 400 ± 10 nM.
Molecule `Cc1cc(OCc2nc3ccccc3[nH]2)ccc1NC(=S)Nc1ccc(Cl)c(Cl)c1` [Compound 6d, 1-(4-((1H-benzo[d]imidazol-2-yl)methoxy)-2-methylphenyl)-3-(3,4-dichlorophenyl)thiourea] registered a melting point of 122 to 124 °C. For the same molecule, in data set [1], the IC50 stood at 223 ± 85.8 nM. Moreover, the IC50 in data set [2] is 600 ± 100 nM.
The corresponding values for `S=C(Nc1ccc(OCc2nc3ccccc3[nH]2)cc1)Nc1ccc(Cl)c(Cl)c1` [Compound 6e, 1-(4-((1H-benzo[d]imidazol-2-yl)methoxy)phenyl)-3-(3,4-dichlorophenyl)thiourea] are 160 to 162 °C, 271 ± 58.4 nM and 500 ± 100 nM.
In the case of `Cc1cc(NC(=S)Nc2ccc(Cl)c(Cl)c2)ccc1OCc1nc2ccccc2[nH]1` [Compound 6f, 1-(4-((1H-benzo[d]imidazol-2-yl)methoxy)-3-methylphenyl)-3-(3,4-dichlorophenyl)thiourea], the melting point was 167 to 168 °C. Besides, the IC50 in data set [1] amounted to 772 ± 169 nM. Further, in data set [2], the IC50 was found to be 750 ± 170 nM.
Take `Cc1cc(OCc2nc3ccccc3s2)ccc1NC(=O)Nc1ccc(Cl)c(Cl)c1` [Diflapolin]: the acute cytotoxicity entry in data set [3] is reported as “no acute cytotoxicity”. For the same molecule, the solubility result in data set [4] is given as “poor solubility”. The “LT biosynthesis in vivo” value in data set [5] is reported as “efficiently inhibits LT biosynthesis in vivo”. In data set [5] (mouse), the “anti-inflammatory activity in mouse” value is “strong anti-inflammatory activity”.
Consider `CC(C)c1ccc2c(c1)c(SC(C)(C)C)c(CC(C)(C)C(=O)O)n2Cc1ccc(Cl)cc1` [MK-886], for which the IC50 in data set [6] is 10 to 14 nM.
